From ChEMBL document CHEMBL1149035, “Verongamine, a novel bromotyrosine-derived histamine H3-antagonist from the marine sponge Verongula gigantea” (J Nat Prod, 1994) come the findings set out here.

Structures are written as SMILES. Active and inactive are the calls of the source. The rule behind the calls is not given here.

One test has as its target Histamine H3 receptor (Cavia porcellus, UniProt Q9JI35). Briefly: Binding affinity to histamine H3 receptor in guinea pig brain membrane. Type of test: cell membranes.
In test [1] the target is Histamine H3 receptor (Cavia porcellus) (UniProt Q9JI35). Briefly: Antagonist activity at guinea pig histamine H3 receptor assessed as blockade of (R)-alpha-methyl histamine-induced inhibition of EFS-stimulated guinea pig ileum contraction at 1 ug/mL. Type of test: functional, tissue-based.
Test [2] shares this target. The experiment in a line: Antagonist activity at guinea pig histamine H3 receptor assessed as blockade of clonidine-induced inhibition of EFS-stimulated guinea pig ileum contraction at 1 ug/mL. Type of test: functional, tissue-based.

Chain of Histamine H3 receptor (Cavia porcellus) (Q9JI35 whole entry): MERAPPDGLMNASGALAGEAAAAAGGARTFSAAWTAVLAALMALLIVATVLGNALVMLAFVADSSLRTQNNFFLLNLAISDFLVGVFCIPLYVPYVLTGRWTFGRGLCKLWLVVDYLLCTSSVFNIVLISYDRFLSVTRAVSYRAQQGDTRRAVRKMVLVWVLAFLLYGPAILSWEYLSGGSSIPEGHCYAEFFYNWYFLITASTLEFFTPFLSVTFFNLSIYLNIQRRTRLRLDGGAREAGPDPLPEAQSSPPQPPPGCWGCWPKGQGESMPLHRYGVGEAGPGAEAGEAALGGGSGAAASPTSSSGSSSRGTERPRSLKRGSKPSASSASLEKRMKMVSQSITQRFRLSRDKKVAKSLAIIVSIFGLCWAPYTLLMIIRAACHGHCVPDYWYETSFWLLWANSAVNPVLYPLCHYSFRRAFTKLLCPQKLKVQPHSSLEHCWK
Chain of Histamine H3 receptor (Q9JI35 whole entry): as above

Take `COc1ccc(C/C(=N\O)C(=O)NCCc2c[nH]cn2)cc1Br` [VERONGAMINE]: the IC50 (as a rule, the concentration needed to halve the response being measured) on Histamine H3 receptor is 0.5 µM. Moreover, the result in test [1] was Active. Further, the outcome in test [2] was inactive.
For `COC1=C(Br)C(O)C2(C=C1Br)CC(C(=O)NCCc1c[nH]cn1)=NO2` (centres undefined), the outcome in test [1] was inactive.
